Three molecules from patent US9655824B2, “Use of diphenylmethane derivatives as tyrosinase inhibitors” (Symrise AG, priority 2003, dated 2017) can be followed below.

The structures appear in SMILES notation. pIC50: −log10 of the molar value. Some results are limits rather than exact numbers.

What all share (type): cell-based
Series [1] is described as follows: Cytotoxicity determination (MTT), 3T3 cells. The settings on record: mouse, 3T3 fibrosarcoma cells; 3T3 cells, 48 h incubation, MTT. The protocol: (§1) 3T3 fibrosarcoma cells or B16V mouse melanoma cells are distributed in a 96-well microtitre plate in a concentration of 1×10^4 cells/well (3T3) or 2×10^4 cells/well (B16V). After culturing for 24 h at 37° C. and 5% CO2 in DMEM medium (3T3 cells) or RPMI medium (B16V cells), enriched with 10% foetal calf serum, the medium is removed by suction. Various concentrations of the test substances, dissolved in fresh medium enriched with 5% foetal calf serum, are added and the plates are incubated for a further 48 h. A parallel incubation is carried out using SDS as standard in concentrations of 0.01 mM, 0.1 mM, 1 mM and 10 mM. After the incubation, the medium is removed by suction and the cells are incubated for with (sic) 2 h with MTT (3-[4,5-dimethylthiazol-2-yl]2,5-diphenyl tetrazolium bromide). After extraction of the dye with SDS acidified with acetic acid in DMSO (10 min), the absorption (A) at 570 nm is measured.
(§2) Average value and standard deviation of the controls, the blanks and the samples are calculated. The average value of the blanks is substracted from the average values of the controls and samples. The viability of the cells is indicated as a percentage with respect to the controls (100%): Viability (%)=(Atest compound/Acontrol)×100]

The test system of series [2] is B16V mouse melanoma cells. Put plainly: Lightening effect: inhibition of pigmentation in α-MSH-stimulated B16V cells. The settings on record: for pIC50: Mus musculus, B16V cells, 10 nM α-MSH, 96 h, absorption 400 nm; for Activity greater than that of kojic acid by a factor: ratio of IC50 values versus kojic acid. The protocol: Test method: B16V mouse melanoma cells are distributed in a 96-well micro titre plate in a concentration of 5×10^3 cells/well. After culturing for 24 h at 37° C. and 5% CO2 in RPMI medium, enriched with 10% foetal calf serum, various concentrations of the test substances and 10 nM α-MSH (α-melanocyte stimulating hormone) are added and the plates are incubated for a further 96 h. The maximum concentration of the test substances used corresponds to 0.1 times the value of the particular IC20 value from the cytotoxicity assay. A parallel incubation was carried out with kojic acid as standard in concentrations of 0.01 mM, 0.1 mM and 1 mM. After the incubation, SDS and NaOH (final concentrations: 1 mM and 1M, respectively) are added to the culture medium and the adsorption (A) is measured at 400 nm after 3 h. The inhibition of the pigmentation in the presence of the test compounds or kojic acid was calculated in accordance with the following equation: Inhibition of pigmentation (%)=100−[(Atest compound/Acontrol)×100] The IC50 is calculated for each test compound from the inhibition of the pigmentation (%) in a series of dilutions of test compounds. The IC50 is the concentration of a test compound at which the pigmentation is 50% inhibited.

Series [3] can be described thus: Cytotoxicity determination (MTT), B16V cells. The settings on record: mouse, B16V melanoma cells, 48 h incubation. The protocol: as §1, §2
Another series concerns 3T3 fibrosarcoma cells. Put plainly: Cytotoxicity determination (MTT), 3T3 cells. The settings on record: approximately comparable to 4-hexylresorcinol. As for the experimental part:
as §1, §2

By IC20 is commonly meant the concentration at which the effect reaches the 20% level. Low readings indicate an effect from little substance, high ones a need for much substance. As a reminder, the IC50 is the concentration that gives 50% inhibition. The low end stands for greater potency, the high end for weaker potency. The term pIC50 denotes the negative decadic logarithm of the IC50, by convention in mol/L. Read a low pIC50 as a large IC50. As to `CCCCCCc1ccc(O)cc1O` [4-hexylresorcinol], in series [1], the IC20 at 48 h is 70 µM and the IC50 at 48 h was found to be 140 µM. Besides, in series [2], the pIC50 is 5.28 and the “Activity greater than that of kojic acid by a factor” value is recorded as “approximately 87”.
As to `O=c1cc(CO)occ1O` [Kojic acid, 5-hydroxy-2-hydroxymethyl-4-pyranone], in series [1], the concentration for an effect of 20% (IC20) at 48 h was above 100000 µM and the half-inhibitory concentration (IC50) at 48 h is above 100000 µM. In series [3], this molecule returned an IC20 at 48 h above 100000 µM and an IC50 at 48 h above 100000 µM.
In series [1], `CC(c1ccccc1)c1ccc(O)cc1O` (stereo not shown) [Styrylresorcinol (4), 4-(1-phenylethyl)-1,3-dihydroxybenzene] came in with an IC20 at 48 h of 70 µM and an IC50 at 48 h of 150 µM. Moreover, the “Cytotoxicity (in words)” value with 3T3 fibrosarcoma cells is listed as “relatively low cytotoxicity”. In series [3], this molecule had an IC20 at 48 h of 20 µM and an IC50 at 48 h of 140 µM. In series [2], the negative-log IC50 (pIC50) was 5.68 and the “Activity greater than that of kojic acid by a factor” value is “approximately 215”. For the same molecule, the “Effectiveness compared with 4-hexylresorcinol” value in series [2] (versus 4-hexylresorcinol) was “more than twice as effective”.
